This passage reports inhibition of growth results from ChEMBL document CHEMBL3045802, “Synthesis and in vitro antitumor activity of new quinoline, pyrimido[4,5-b]quinoline, [1,2,3]triazino[4,5-b]quinoline, and [1,2,4]triazolo[2,3:3,4]pyrimido[6,5-b]quinoline analogs” (2013).

SMILES strings stand for the structures.

Type in all cases: functional
The test system of one assay is DU-145. The assay can be described thus: Cytotoxicity against Homo sapiens (human) DU145 cells assessed as growth inhibition at 10 uM after 48 hr by coulter counter analysis. As to conditions: DU-145, 48 h, read-out: GI.
A further assay deals with NCI-H23. Nature of the assay: Cytotoxicity against Homo sapiens (human) NCI-H23 cells assessed as growth inhibition at 10 uM after 48 hr by coulter counter analysis. The note with it: NCI-H23, 48 h, read-out: GI.
Another assay relates to HOP-92. The assay can be described thus: Cytotoxicity against Homo sapiens (human) HOP92 cells assessed as growth inhibition at 10 uM after 48 hr by coulter counter analysis. The note with it: HOP-92, 48 h, read-out: GI.
The next assay concerns NCI-H522. The assay can be described thus: Cytotoxicity against Homo sapiens (human) NCI-H522 cells assessed as growth inhibition at 10 uM after 48 hr by coulter counter analysis. The note with it: NCI-H522, 48 h, read-out: GI.
The next assay relates to CCRF-CEM. Nature of the assay: Cytotoxicity against Homo sapiens (human) CCRF-CEM cells assessed as growth inhibition at 10 uM after 48 hr by coulter counter analysis. The note with it: read-out: GI.
In another assay the test system is OVCAR-5. The assay can be described thus: Cytotoxicity against Homo sapiens (human) OVCAR5 cells assessed as growth inhibition at 10 uM after 48 hr by coulter counter analysis. The note with it: OVCAR-5, 48 h, read-out: GI.
In the next assay the test system is ACHN. Nature of the assay: Cytotoxicity against Homo sapiens (human) ACHN cells assessed as growth inhibition at 10 uM after 48 hr by coulter counter analysis. As to conditions: read-out: GI.
The next assay relates to SK-MEL-28. Nature of the assay: Cytotoxicity against Homo sapiens (human) SK-MEL-28 cells assessed as growth inhibition at 10 uM after 48 hr by coulter counter analysis. The note with it: SK-MEL-28, 48 h, read-out: GI.
The test system of the next assay is Malme-3M. Nature of the assay: Cytotoxicity against Homo sapiens (human) MALME-3M cells assessed as growth inhibition at 10 uM after 48 hr by coulter counter analysis. As to conditions: read-out: GI.
Another assay concerns MCF7. Nature of the assay: Cytotoxicity against Homo sapiens (human) MCF7 cells assessed as growth inhibition at 10 uM after 48 hr by coulter counter analysis. As to conditions: MCF7, 48 h, read-out: GI.
For another assay, the system named is RPMI-8226. Nature of the assay: Cytotoxicity against Homo sapiens (human) RPMI8226 cells assessed as growth inhibition at 10 uM after 48 hr by coulter counter analysis. As to conditions: RPMI-8226, 48 h, read-out: GI.
A further assay relates to SK-OV-3. Nature of the assay: Cytotoxicity against Homo sapiens (human) SKOV3 cells assessed as growth inhibition at 10 uM after 48 hr by coulter counter analysis. As to conditions: SK-OV-3, 48 h, read-out: GI.
Another assay concerns NCI-H460. The assay can be described thus: Cytotoxicity against Homo sapiens (human) NCI-H460 cells assessed as growth inhibition at 10 uM after 48 hr by coulter counter analysis. As to conditions: NCI-H460, 48 h, read-out: GI.
A further assay deals with M14. The assay can be described thus: Cytotoxicity against Homo sapiens (human) M14 cells assessed as growth inhibition at 10 uM after 48 hr by coulter counter analysis. The note with it: M14, 48 h, read-out: GI.
Another assay relates to LOX IMVI. The assay can be described thus: Cytotoxicity against Homo sapiens (human) LOXIMVI cells assessed as growth inhibition at 10 uM after 48 hr by coulter counter analysis. The note with it: read-out: GI.
The subject of the next assay is OVCAR-4. The assay can be described thus: Cytotoxicity against Homo sapiens (human) OVCAR4 cells assessed as growth inhibition at 10 uM after 48 hr by coulter counter analysis. The note with it: OVCAR-4, 48 h, read-out: GI.
The next assay relates to HL-60(TB). Nature of the assay: Cytotoxicity against Homo sapiens (human) HL-60(TB) cells assessed as growth inhibition at 10 uM after 48 hr by coulter counter analysis. The note with it: HL-60, 48 h, read-out: GI.
For the next assay, the system named is BT-549. Nature of the assay: Cytotoxicity against Homo sapiens (human) BT549 cells assessed as growth inhibition at 10 uM after 48 hr by coulter counter analysis. As to conditions: BT-549, 48 h, read-out: GI.
A short description of assay [1]: Cytotoxicity against Homo sapiens (human) NCI-ADR-RES cells assessed as growth inhibition at 10 uM after 48 hr by coulter counter analysis. The note with it: read-out: GI.
Another assay relates to SF-295. The assay can be described thus: Cytotoxicity against Homo sapiens (human) SF295 cells assessed as growth inhibition at 10 uM after 48 hr by coulter counter analysis. As to conditions: SF-295, 48 h, read-out: GI.
In the next assay the test system is A498. The assay can be described thus: Cytotoxicity against Homo sapiens (human) A498 cells assessed as growth inhibition at 10 uM after 48 hr by coulter counter analysis. As to conditions: A498, 48 h, read-out: GI.
The test system of the next assay is MDA-MB-435. The assay can be described thus: Cytotoxicity against Homo sapiens (human) MDA-MB-435 cells assessed as growth inhibition at 10 uM after 48 hr by coulter counter analysis. As to conditions: MDA-MB-435, 48 h, read-out: GI.
For a further assay, the system named is TK-10. The assay can be described thus: Cytotoxicity against Homo sapiens (human) TK10 cells assessed as growth inhibition at 10 uM after 48 hr by coulter counter analysis. The note with it: TK-10, 48 h, read-out: GI.
The next assay has as its system UACC-62. The assay can be described thus: Cytotoxicity against Homo sapiens (human) UACC62 cells assessed as growth inhibition at 10 uM after 48 hr by coulter counter analysis. The note with it: UACC-62, 48 h, read-out: GI.

Take `Clc1ccc(C2C3=C(CCCC3)Nc3ncn4nc(-c5ccccc5)nc4c32)cc1` (stereo unspecified): the inhibition of growth at 10 µM is less than 10% with DU-145; 11.7% in the assay on NCI-H23; 14% in the assay on HOP-92; 23.5% in the assay with NCI-H522; less than 10% in the assay with CCRF-CEM; less than 10% in the assay with OVCAR-5. The inhibition of growth at 10 µM in the assay with ACHN was less than 10%; in the assay on SK-MEL-28 it was less than 10%; in the assay with Malme-3M, less than 10%; with MCF7 it was less than 10%; in the assay with RPMI-8226 it was 12.3%; with SK-OV-3, less than 10%. Also, the inhibition of growth at 10 µM in the assay with NCI-H460 was less than 10%; with M14, less than 10%; in the assay with LOX IMVI, 15.1%; in the assay on OVCAR-4, less than 10%; with HL-60(TB), less than 10%; in the assay with BT-549, less than 10%. Moreover, the inhibition of growth at 10 µM in [1] was less than 10%; in the assay with SF-295 it was less than 10%; with A498, 20.6%; with MDA-MB-435, less than 10%; in the assay on TK-10 it was less than 10%; with UACC-62 it was 13.4%.
Consider `COc1ccc(C2C3=C(CCCC3)Nc3ncn4nc(-c5ccc(O)cc5)nc4c32)cc1OC` (stereo unspecified), for which the inhibition of growth at 10 µM is less than 10% in the assay with DU-145; less than 10% in the assay on NCI-H23; 12.2% in the assay on HOP-92; 16.4% in the assay on NCI-H522; less than 10% in the assay with CCRF-CEM; less than 10% in the assay with OVCAR-5. In addition, the inhibition of growth at 10 µM in the assay on ACHN, in the assay on SK-MEL-28, with Malme-3M, with MCF7, in the assay with RPMI-8226 and in the assay on SK-OV-3 was less than 10% in each case. Besides, the inhibition of growth at 10 µM with NCI-H460, with M14, in the assay with LOX IMVI, with OVCAR-4, in the assay on HL-60(TB) and in the assay on BT-549 was less than 10% each time. Besides, the inhibition of growth at 10 µM (in [1]; in the assay with SF-295; with A498; with MDA-MB-435; with TK-10; with UACC-62) was less than 10% in each case.
As for `COc1ccc(-c2nc3c(c(=O)[nH]2)C(c2ccc(OC)c(OC)c2)C2=C(CCCC2)N3)cc1OC` (stereo unspecified), the inhibition of growth at 10 µM with DU-145 was less than 10%; in the assay on NCI-H23, less than 10%; in the assay with HOP-92, 26.3%; in the assay on NCI-H522 it was 25.8%; in the assay on CCRF-CEM it was 11.7%; in the assay on OVCAR-5 it was less than 10%. In addition, the inhibition of growth at 10 µM in the assay on ACHN was 28.8%; in the assay with SK-MEL-28, less than 10%; with Malme-3M, less than 10%; in the assay with MCF7 it was 34.3%; in the assay with RPMI-8226, 10.8%; with SK-OV-3, less than 10%. In addition, the inhibition of growth at 10 µM in the assay with NCI-H460 is less than 10%; in the assay on M14, less than 10%; with LOX IMVI, 21.1%; in the assay on OVCAR-4, 10.8%; in the assay with HL-60(TB) it was less than 10%; in assay [1], less than 10%. Also, the inhibition of growth at 10 µM in the assay on SF-295, with A498, in the assay with MDA-MB-435, with TK-10 and with UACC-62 was less than 10% each time.
On to `COc1ccc(C2C3=C(CCCC3)Nc3[nH]c(=S)nc(NC(N)=S)c32)cc1OC` (stereo unspecified), for which the inhibition of growth at 10 µM was less than 10% in the assay on DU-145; 15.3% with NCI-H23; 25.8% with HOP-92; 43.4% in the assay with NCI-H522; less than 10% in the assay on CCRF-CEM; less than 10% in the assay with OVCAR-5. Besides, the inhibition of growth at 10 µM is 11.4% in the assay with ACHN; less than 10% in the assay on SK-MEL-28; 10.9% in the assay with Malme-3M; less than 10% in the assay on MCF7; less than 10% in the assay with RPMI-8226; 18.6% in the assay on SK-OV-3. The inhibition of growth at 10 µM in the assay with NCI-H460 was less than 10%; in the assay with M14, less than 10%; with LOX IMVI, 16.1%; with OVCAR-4, less than 10%; in the assay on HL-60(TB) it was less than 10%; in the assay with BT-549 it was less than 10%. The inhibition of growth at 10 µM is 11.7% in assay [1]; 14.4% with SF-295; less than 10% in the assay with A498; 70.7% with MDA-MB-435; less than 10% in the assay with TK-10; less than 10% in the assay on UACC-62.
Regarding `N#CCc1nc2c(c(=O)[nH]1)C(c1ccc(Cl)cc1)C1=C(CCCC1)N2` (stereo unspecified), the inhibition of growth at 10 µM is less than 10% in the assay on DU-145; 12.1% in the assay with NCI-H23; 11.2% with HOP-92; 11.4% in the assay with NCI-H522; less than 10% in the assay with CCRF-CEM; less than 10% in the assay with OVCAR-5. Also, the inhibition of growth at 10 µM in the assay on ACHN is 13.8%; with SK-MEL-28, less than 10%; in the assay with Malme-3M, less than 10%; with MCF7, less than 10%; in the assay with RPMI-8226 it was less than 10%; in the assay with SK-OV-3, less than 10%. In addition, the inhibition of growth at 10 µM in the assay on NCI-H460, with M14, with LOX IMVI, in the assay with OVCAR-4, in the assay with HL-60(TB) and in the assay on BT-549 was less than 10% throughout. Moreover, the inhibition of growth at 10 µM in assay [1] is less than 10%; with SF-295 it was less than 10%; in the assay with A498, 13%; in the assay with MDA-MB-435, less than 10%; with TK-10, less than 10%.
On to `COc1ccc(C2C3=C(CCCC3)Nc3nc(-c4ccc(N(C)C)cc4)[nH]c(=O)c32)cc1OC` (stereo unspecified), for which the inhibition of growth at 10 µM is less than 10% in the assay with DU-145; less than 10% in the assay on NCI-H23; less than 10% in the assay on HOP-92; 14.4% in the assay on NCI-H522; less than 10% in the assay with CCRF-CEM; less than 10% in the assay on OVCAR-5. The inhibition of growth at 10 µM in the assay with ACHN, in the assay on SK-MEL-28, in the assay on Malme-3M, in the assay with MCF7, with RPMI-8226 and in the assay on SK-OV-3 was less than 10% throughout. Moreover, the inhibition of growth at 10 µM in the assay on NCI-H460, in the assay with M14, in the assay on LOX IMVI, with OVCAR-4, in the assay with HL-60(TB) and with BT-549 was less than 10% in each case. Besides, the inhibition of growth at 10 µM in [1] was less than 10%; with SF-295 it was less than 10%; in the assay on A498 it was 21.7%; in the assay on MDA-MB-435 it was less than 10%; in the assay on TK-10, less than 10%.
